Like-named read-outs stand apart in the source and are kept apart here. Numbered stars: 1 amine (or outer) side, 2 acyl side, 3 side chain; on linkers, the order of the positions; unused ones are H or OH. Square brackets hold non-standard residues; d marks the D form. Side chains are listed from the residue outwards. Peptide text beside a SMILES is read from it. * marks the point of attachment. C18 diacid = O=C(O)CCCCCCCCCCCCCCCCC(=O)*; γGlu = O=C(O)[C@H](CCC(=O)[*:2])N[*:1]; αMeF = C[C@](N)(Cc1ccccc1)C(=O)O; αMeK = C[C@](N)(CCCCN)C(=O)O; αMeS = C[C@](N)(CO)C(=O)O; AEEA = NCCOCCOCC(=O)O; Aib = CC(C)(N)C(=O)O
Tests used:
Type in all cases: cell-based
[1] = target: T1, human glucose-dependent insulinotropic peptide receptor (GIPR) (Homo sapiens, UniProt P48546); assay: cAMP assay, human GIPR cells; conditions: cAMP activity, read-out: Primary assay EC50 GIP-R
T1 construct: expressed in transfected cells; host or cells: HEK293 cells or CHO cells
T1 sequence (P48546 22-466): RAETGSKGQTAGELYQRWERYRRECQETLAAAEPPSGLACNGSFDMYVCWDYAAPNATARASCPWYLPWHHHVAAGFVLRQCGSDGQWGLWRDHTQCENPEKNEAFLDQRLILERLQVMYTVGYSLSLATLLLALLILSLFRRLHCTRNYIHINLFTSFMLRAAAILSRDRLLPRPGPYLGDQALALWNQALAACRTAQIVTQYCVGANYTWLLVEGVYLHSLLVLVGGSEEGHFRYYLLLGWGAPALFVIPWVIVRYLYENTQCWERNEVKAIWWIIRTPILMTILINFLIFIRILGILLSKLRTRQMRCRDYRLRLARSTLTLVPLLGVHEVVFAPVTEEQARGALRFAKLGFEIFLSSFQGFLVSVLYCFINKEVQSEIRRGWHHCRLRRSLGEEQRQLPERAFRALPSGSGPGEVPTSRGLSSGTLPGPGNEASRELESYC
Outline: (§1)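 Peptide-stimulated cAMP measured by two-step HTRF after a 30 min room-temperature incubation with receptor-expressing cells (hGLP-1R, hGIPR at 1×10^5 cells/ml; hGCGR at 2×10^5 cells/ml). Duplicate dilutions; EC50 from 4-parameter logistic fit of % Delta F.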

[2] = target: T2, GLP-1R (INS1e cells) (Rattus norvegicus, UniProt P32301); assay: INS1e assay, cAMP activity at GLP-1R; conditions: Table 8, substituted and mono-lipidated peptides
T2 construct: endogenous in cells; host or cells: INS1e cells
T2 sequence (P32301 22-463): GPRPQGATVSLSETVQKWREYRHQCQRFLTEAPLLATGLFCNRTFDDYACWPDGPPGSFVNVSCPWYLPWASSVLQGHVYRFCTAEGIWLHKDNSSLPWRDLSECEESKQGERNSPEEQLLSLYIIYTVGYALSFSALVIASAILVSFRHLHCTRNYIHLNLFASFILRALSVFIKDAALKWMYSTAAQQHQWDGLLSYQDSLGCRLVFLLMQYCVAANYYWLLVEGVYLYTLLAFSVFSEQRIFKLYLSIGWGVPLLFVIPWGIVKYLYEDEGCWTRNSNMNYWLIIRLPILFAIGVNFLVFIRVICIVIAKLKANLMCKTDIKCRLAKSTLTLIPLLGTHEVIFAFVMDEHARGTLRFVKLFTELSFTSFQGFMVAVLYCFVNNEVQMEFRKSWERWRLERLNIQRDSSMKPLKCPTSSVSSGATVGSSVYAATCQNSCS

[3] = target: T3, human GLP-1 receptor (GLP-1R) (Homo sapiens, UniProt P43220); assay: cAMP assay, human GLP-1R cells; conditions: cAMP activity
T3 construct: expressed in transfected cells; host or cells: HEK293 cells or CHO cells
T3 sequence (P43220 24-463): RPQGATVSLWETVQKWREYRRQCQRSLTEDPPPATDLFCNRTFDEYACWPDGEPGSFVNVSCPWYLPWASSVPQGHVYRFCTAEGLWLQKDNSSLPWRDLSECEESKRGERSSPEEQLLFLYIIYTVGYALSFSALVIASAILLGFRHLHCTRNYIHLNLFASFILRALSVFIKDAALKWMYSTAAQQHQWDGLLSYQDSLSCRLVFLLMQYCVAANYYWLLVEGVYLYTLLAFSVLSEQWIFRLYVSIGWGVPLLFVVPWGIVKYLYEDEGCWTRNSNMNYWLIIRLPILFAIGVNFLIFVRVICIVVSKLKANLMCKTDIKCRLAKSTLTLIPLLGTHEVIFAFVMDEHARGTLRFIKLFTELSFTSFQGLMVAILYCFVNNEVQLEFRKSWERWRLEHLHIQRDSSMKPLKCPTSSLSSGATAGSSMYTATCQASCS
Outline: as §1

[4] = target: T4, human glucagon receptor (GCGR) (Homo sapiens, UniProt P47871); assay: cAMP assay, human GCGR cells; conditions: cAMP activity; second determination (n2); read-out: Primary assay EC50 Gluc-R
T4 construct: expressed in transfected cells; host or cells: HEK293 cells or CHO cells
T4 sequence (P47871 26-477): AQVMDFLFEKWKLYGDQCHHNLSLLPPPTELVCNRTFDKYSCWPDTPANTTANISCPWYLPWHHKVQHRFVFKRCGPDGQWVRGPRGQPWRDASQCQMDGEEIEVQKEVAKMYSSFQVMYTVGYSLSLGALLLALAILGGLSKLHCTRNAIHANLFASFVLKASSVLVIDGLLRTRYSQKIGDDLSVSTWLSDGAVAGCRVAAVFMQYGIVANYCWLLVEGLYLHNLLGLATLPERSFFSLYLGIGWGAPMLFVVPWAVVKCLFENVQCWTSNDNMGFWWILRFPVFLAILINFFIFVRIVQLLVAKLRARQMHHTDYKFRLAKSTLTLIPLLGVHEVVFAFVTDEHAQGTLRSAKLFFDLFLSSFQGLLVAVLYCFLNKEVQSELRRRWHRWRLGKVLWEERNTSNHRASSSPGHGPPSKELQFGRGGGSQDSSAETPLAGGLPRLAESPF
Outline: as §1

[5] = mean of n1 and n2, read-out: INS1e assay EC50 Mean pM GLP-1R
[6] = replicate n1, read-out: INS1e assay EC50 GLP-1R n1
[7] = replicate n2, read-out: INS1e assay EC50 GLP-1R n2
[8] = first determination (n1), read-out: Primary assay EC50 GLP-1R n1
[9] = mean of n1 and n2, read-out: Mean pM GLP-1R
[10] = second determination (n2), read-out: Primary assay EC50 GLP-1R n2

Structure (SMILES): CC[C@H](C)[C@H](NC(=O)[C@](C)(Cc1ccccc1)NC(=O)[C@H](CCC(=O)O)NC(=O)[C@](C)(CCCCN)NC(=O)[C@H](C)NC(=O)[C@H](C)NC(=O)[C@H](CCC(=O)O)NC(=O)CNC(=O)[C@H](CCC(=O)O)NC(=O)[C@H](CC(C)C)NC(=O)[C@](C)(Cc1ccccc1)NC(=O)[C@H](CO)NC(=O)[C@](C)(CO)NC(=O)[C@@H](NC(=O)[C@H](CC(=O)O)NC(=O)[C@H](CO)NC(=O)[C@@H](NC(=O)[C@](C)(Cc1ccccc1)NC(=O)[C@H](CO)NC(=O)CNC(=O)[C@H](CCC(=O)O)NC(=O)C(C)(C)NC(=O)[C@@H](N)Cc1c[nH]cn1)[C@@H](C)O)C(C)C)C(=O)N[C@@H](C)C(=O)N[C@@](C)(Cc1ccccc1)C(=O)N[C@H](C(=O)N[C@@H](CCCCNC(=O)COCCOCCNC(=O)COCCOCCNC(=O)CC[C@H](NC(=O)CCCCCCCCCCCCCCCCC(=O)O)C(=O)O)C(=O)N[C@@](C)(CCCCN)C(=O)NCC(=O)NCC(N)=O)C(C)C [compound 102] (H-H[Aib]EGS[αMeF]TSDV[αMeS]S[αMeF]LEGEAA[αMeK]E[αMeF]IA[αMeF]VK([AEEA-AEEA-γGlu-C18 diacid])[αMeK]GG-NH2)
- EC50 ([1]; first determination (n1)): ≥ 25 nM
- EC50 ([1]; second determination (n2)): ≥ 25.2 nM
- EC50 [2, 5]: 3560 pM
- EC50 [2, 6]: 4220 pM
- EC50 [2, 7]: 2890 pM
- EC50 [3, 8]: 24 pM
- EC50 [3, 9]: 22 pM
- EC50 [3, 10]: 20.6 pM
- EC50 [4]: ≥ 25.2 nM

Structure (SMILES): CC[C@H](C)[C@H](NC(=O)[C@](C)(Cc1ccccc1)NC(=O)[C@H](CCC(=O)O)NC(=O)[C@](C)(CCCCN)NC(=O)[C@H](C)NC(=O)[C@H](C)NC(=O)[C@H](CCC(=O)O)NC(=O)CNC(=O)[C@H](CCC(=O)O)NC(=O)[C@H](CC(C)C)NC(=O)[C@](C)(Cc1ccccc1)NC(=O)[C@H](CO)NC(=O)[C@](C)(CO)NC(=O)[C@@H](NC(=O)[C@H](CC(=O)O)NC(=O)[C@H](CO)NC(=O)[C@@H](NC(=O)[C@](C)(Cc1ccccc1)NC(=O)[C@H](CO)NC(=O)CNC(=O)[C@H](CCC(=O)O)NC(=O)C(C)(C)NC(=O)[C@@H](N)Cc1c[nH]cn1)[C@@H](C)O)C(C)C)C(=O)N[C@@H](C)C(=O)N[C@@](C)(Cc1ccccc1)C(=O)N[C@@H](CCCCNC(=O)COCCOCCNC(=O)COCCOCCNC(=O)CC[C@H](NC(=O)CCCCCCCCCCCCCCCCC(=O)O)C(=O)O)C(=O)N[C@H](C(=O)N[C@@](C)(CCCCN)C(=O)NCC(=O)NCC(N)=O)C(C)C [compound 103] (H-H[Aib]EGS[αMeF]TSDV[αMeS]S[αMeF]LEGEAA[αMeK]E[αMeF]IA[αMeF]K([AEEA-AEEA-γGlu-C18 diacid])V[αMeK]GG-NH2)
- EC50 ([1]; first determination (n1)): ≥ 25 nM
- EC50 ([1]; second determination (n2)): ≥ 25.2 nM
- EC50 [2, 5]: 509 pM
- EC50 [2, 6]: 428 pM
- EC50 [2, 7]: 590 pM
- EC50 [3, 8]: 4.7 pM
- EC50 [3, 9]: 5 pM
- EC50 [3, 10]: 4.56 pM
- EC50 [4]: ≥ 25.2 nM

Structure (SMILES): CC[C@H](C)[C@H](NC(=O)[C@](C)(Cc1ccccc1)NC(=O)[C@H](CCC(=O)O)NC(=O)[C@](C)(CCCCN)NC(=O)[C@H](C)NC(=O)[C@H](C)NC(=O)[C@H](CCC(=O)O)NC(=O)CNC(=O)[C@H](CCC(=O)O)NC(=O)[C@H](CC(C)C)NC(=O)[C@](C)(Cc1ccccc1)NC(=O)[C@H](CO)NC(=O)[C@](C)(CO)NC(=O)[C@@H](NC(=O)[C@H](CC(=O)O)NC(=O)[C@H](CO)NC(=O)[C@@H](NC(=O)[C@](C)(Cc1ccccc1)NC(=O)[C@H](CO)NC(=O)CNC(=O)[C@H](CCC(=O)O)NC(=O)C(C)(C)NC(=O)[C@@H](N)Cc1c[nH]cn1)[C@@H](C)O)C(C)C)C(=O)N[C@@H](CCCCNC(=O)COCCOCCNC(=O)COCCOCCNC(=O)CC[C@H](NC(=O)CCCCCCCCCCCCCCCCC(=O)O)C(=O)O)C(=O)N[C@@](C)(Cc1ccccc1)C(=O)N[C@H](C(=O)N[C@H](C(=O)N[C@@](C)(CCCCN)C(=O)NCC(=O)NCC(N)=O)C(C)C)C(C)C [compound 105] (H-H[Aib]EGS[αMeF]TSDV[αMeS]S[αMeF]LEGEAA[αMeK]E[αMeF]IK([AEEA-AEEA-γGlu-C18 diacid])[αMeF]VV[αMeK]GG-NH2; N-terminus assumed)
- EC50 ([1]; first determination (n1)): ≥ 25 nM
- EC50 ([1]; second determination (n2)): ≥ 25 nM
- EC50 [2, 5]: 970 pM
- EC50 [2, 6]: 220 pM
- EC50 [2, 7]: 1720 pM
- EC50 [3, 8]: 21 pM
- EC50 [3, 9]: 18 pM
- EC50 [3, 10]: 14.8 pM
- EC50 [4]: ≥ 25 nM

Structure (SMILES): CC[C@H](C)[C@H](NC(=O)[C@](C)(Cc1ccccc1)NC(=O)[C@H](CCC(=O)O)NC(=O)[C@](C)(CCCCN)NC(=O)[C@H](C)NC(=O)[C@H](C)NC(=O)[C@H](CCC(=O)O)NC(=O)CNC(=O)[C@H](CCC(=O)O)NC(=O)[C@H](CCCCNC(=O)COCCOCCNC(=O)COCCOCCNC(=O)CC[C@H](NC(=O)CCCCCCCCCCCCCCCCC(=O)O)C(=O)O)NC(=O)[C@](C)(Cc1ccccc1)NC(=O)[C@H](CO)NC(=O)[C@](C)(CO)NC(=O)[C@@H](NC(=O)[C@H](CC(=O)O)NC(=O)[C@H](CO)NC(=O)[C@@H](NC(=O)[C@](C)(Cc1ccccc1)NC(=O)[C@H](CO)NC(=O)CNC(=O)[C@H](CCC(=O)O)NC(=O)C(C)(C)NC(=O)[C@@H](N)Cc1c[nH]cn1)[C@@H](C)O)C(C)C)C(=O)N[C@@H](C)C(=O)N[C@@](C)(Cc1ccccc1)C(=O)N[C@H](C(=O)N[C@H](C(=O)N[C@@](C)(CCCCN)C(=O)NCC(=O)NCC(N)=O)C(C)C)C(C)C [compound 115] (H-H[Aib]EGS[αMeF]TSDV[αMeS]S[αMeF]K([AEEA-AEEA-γGlu-C18 diacid])EGEAA[αMeK]E[αMeF]IA[αMeF]VV[αMeK]GG-NH2)
- EC50 ([1]; first determination (n1)): ≥ 25 nM
- EC50 ([1]; second determination (n2)): ≥ 25.3 nM
- EC50 [2, 5]: 544 pM
- EC50 [2, 6]: 593 pM
- EC50 [2, 7]: 494 pM
- EC50 [3, 8]: 6 pM
- EC50 [3, 9]: 6 pM
- EC50 [3, 10]: 5.39 pM
- EC50 [4]: ≥ 25.3 nM

Structure (SMILES): CCCCCCCCCCCC(=O)NCCOCCOCC(=O)NCCCC[C@H](NC(=O)[C@@H](NC(=O)[C@@H](NC(=O)[C@](C)(Cc1ccccc1)NC(=O)[C@H](C)NC(=O)[C@@H](NC(=O)[C@](C)(Cc1ccccc1)NC(=O)[C@H](CCC(=O)O)NC(=O)[C@](C)(CCCCN)NC(=O)[C@H](C)NC(=O)[C@H](C)NC(=O)[C@H](CCC(=O)O)NC(=O)CNC(=O)[C@H](CCC(=O)O)NC(=O)[C@H](CC(C)C)NC(=O)[C@](C)(Cc1ccccc1)NC(=O)[C@H](CO)NC(=O)[C@](C)(CO)NC(=O)[C@@H](NC(=O)[C@H](CC(=O)O)NC(=O)[C@H](CO)NC(=O)[C@@H](NC(=O)[C@](C)(Cc1ccccc1)NC(=O)[C@H](CO)NC(=O)CNC(=O)[C@H](CCC(=O)O)NC(=O)C(C)(C)NC(=O)[C@@H](N)Cc1c[nH]cn1)[C@@H](C)O)C(C)C)[C@@H](C)CC)C(C)C)C(C)C)C(=O)NCC(=O)NCC(N)=O [compound 170]
- EC50 ([1]; first determination (n1)): ≥ 28 nM
- EC50 ([1]; second determination (n2)): ≥ 28 nM
- EC50 [2, 5]: 462 pM
- EC50 [2, 6]: 548 pM
- EC50 [2, 7]: 376 pM
- EC50 [3, 8]: 8 pM
- EC50 [3, 9]: 6.2 pM
- EC50 [3, 10]: 4.5 pM
- EC50 [4]: ≥ 28 nM
